From the NIST ThermoML archive (doi:10.1016/j.tca.2004.09.020)
“And” between values parts separate entries of the source, which are not always exact repeats. Identical values can stand only once.

Assay: isobaric coefficient of expansion
Conditions: Gas, Pressure calorimetry

N#N [nitrogen]
Conditions	isobaric coefficient of expansion
302.9 K, 15 kPa	0.004 1/K
302.9 K, 30 kPa	0.0036 1/K
302.9 K, 39.9 kPa	0.00322 1/K
302.9 K, 60 kPa	0.00262 1/K
302.9 K, 70 kPa	0.00243 1/K
302.9 K, 80 kPa	0.00224 1/K
302.9 K, 89.9 kPa	0.00209 1/K
322.9 K, 13 kPa	0.0036 1/K
322.9 K, 14 kPa	0.0036 1/K
322.9 K, 15 kPa	0.0036 1/K
322.9 K, 16 kPa	0.0036 1/K
322.9 K, 18 kPa	0.0036 1/K
322.9 K, 20 kPa	0.0036 1/K
322.9 K, 30 kPa	0.00333 1/K
322.9 K, 40 kPa	0.00303 1/K
322.9 K, 60 kPa	0.0025 1/K and 0.00251 1/K
322.9 K, 80 kPa	0.00212 1/K
352.6 K, 14 kPa	0.00309 1/K
352.6 K, 30 kPa	0.00297 1/K and 0.00299 1/K
352.6 K, 40 kPa	0.0026 1/K
352.6 K, 50 kPa	0.00252 1/K
352.6 K, 60 kPa	0.00232 1/K
352.6 K, 70 kPa	0.00217 1/K
352.6 K, 80 kPa	0.002 1/K
352.6 K, 90 kPa	0.00186 1/K
422.2 K, 18 kPa	0.00244 1/K
422.2 K, 22 kPa	0.00249 1/K
422.2 K, 24 kPa	0.00248 1/K
422.2 K, 26 kPa	0.00238 1/K
422.2 K, 28 kPa	0.00236 1/K
422.2 K, 30 kPa	0.00236 1/K
422.2 K, 40 kPa	0.00225 1/K
422.2 K, 50 kPa	0.00206 1/K
422.2 K, 60 kPa	0.00194 1/K
422.2 K, 70 kPa	0.00184 1/K
422.2 K, 80 kPa	0.00177 1/K
422.2 K, 90 kPa	0.00165 1/K
